From article PMC8882856, “The affinity and selectivity of α‐adrenoceptor antagonists, antidepressants and antipsychotics for the human α2A, α2B, and α2C‐adrenoceptors and comparison with human α1 and β‐adrenoceptors” (Pharmacology Research & Perspectives, 2022)
“Also recorded” adds a separate entry of the source. Like-named read-outs stand apart in the source and are kept apart here.

Assays:
[1] = biological target: T1, human α2A‐adrenoceptor (Homo sapiens, UniProt P08913); assay: ^3H‐rauwolscine whole cell competition binding, CHO‐α2A cells
T1 sequence (P08913 1-465): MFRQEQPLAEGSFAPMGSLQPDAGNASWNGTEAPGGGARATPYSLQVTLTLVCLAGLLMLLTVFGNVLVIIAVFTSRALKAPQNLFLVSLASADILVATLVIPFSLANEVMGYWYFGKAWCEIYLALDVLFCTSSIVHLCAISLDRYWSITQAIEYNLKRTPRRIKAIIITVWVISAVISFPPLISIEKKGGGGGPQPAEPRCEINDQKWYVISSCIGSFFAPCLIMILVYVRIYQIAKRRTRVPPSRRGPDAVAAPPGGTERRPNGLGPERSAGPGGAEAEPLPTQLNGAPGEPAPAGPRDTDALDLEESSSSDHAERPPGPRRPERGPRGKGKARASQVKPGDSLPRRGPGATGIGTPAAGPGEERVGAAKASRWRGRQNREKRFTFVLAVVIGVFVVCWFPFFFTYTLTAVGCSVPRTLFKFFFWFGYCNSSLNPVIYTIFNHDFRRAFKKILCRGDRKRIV

[2] = biological target: human β1‐adrenoceptor (Homo sapiens, UniProt P08588)
Chain of human β1‐adrenoceptor (P08588 whole entry): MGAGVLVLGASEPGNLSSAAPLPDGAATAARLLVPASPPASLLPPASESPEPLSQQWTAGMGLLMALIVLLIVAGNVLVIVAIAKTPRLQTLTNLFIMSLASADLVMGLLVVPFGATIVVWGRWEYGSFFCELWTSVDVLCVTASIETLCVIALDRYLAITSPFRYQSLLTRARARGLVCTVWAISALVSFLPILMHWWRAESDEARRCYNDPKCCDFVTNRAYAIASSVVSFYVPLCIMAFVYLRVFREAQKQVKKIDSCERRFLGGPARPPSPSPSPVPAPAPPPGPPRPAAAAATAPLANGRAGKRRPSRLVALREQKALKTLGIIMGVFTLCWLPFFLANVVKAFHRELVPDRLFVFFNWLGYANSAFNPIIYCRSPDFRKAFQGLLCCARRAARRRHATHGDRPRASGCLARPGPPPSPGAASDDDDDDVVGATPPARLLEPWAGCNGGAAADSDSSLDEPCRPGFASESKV

[3] = biological target: human β2‐adrenoceptor (Homo sapiens, UniProt P07550); type: binding
Chain of human β2‐adrenoceptor (P07550 whole entry): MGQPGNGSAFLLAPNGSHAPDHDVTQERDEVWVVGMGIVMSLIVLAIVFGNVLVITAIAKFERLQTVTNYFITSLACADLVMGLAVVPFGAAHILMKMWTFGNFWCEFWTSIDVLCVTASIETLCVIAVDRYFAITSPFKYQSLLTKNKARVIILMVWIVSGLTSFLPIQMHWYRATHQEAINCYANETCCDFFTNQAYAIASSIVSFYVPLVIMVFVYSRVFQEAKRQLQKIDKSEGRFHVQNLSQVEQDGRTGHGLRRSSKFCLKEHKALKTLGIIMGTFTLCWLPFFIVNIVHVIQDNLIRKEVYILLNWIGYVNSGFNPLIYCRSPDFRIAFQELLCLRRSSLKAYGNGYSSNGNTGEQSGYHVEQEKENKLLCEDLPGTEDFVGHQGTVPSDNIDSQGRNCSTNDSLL

[4] = biological target: T2, human α2B‐adrenoceptor (Homo sapiens, UniProt P18089); assay: ^3H‐rauwolscine whole cell competition binding, CHO‐α2B cells
T2 sequence (P18089 1-450): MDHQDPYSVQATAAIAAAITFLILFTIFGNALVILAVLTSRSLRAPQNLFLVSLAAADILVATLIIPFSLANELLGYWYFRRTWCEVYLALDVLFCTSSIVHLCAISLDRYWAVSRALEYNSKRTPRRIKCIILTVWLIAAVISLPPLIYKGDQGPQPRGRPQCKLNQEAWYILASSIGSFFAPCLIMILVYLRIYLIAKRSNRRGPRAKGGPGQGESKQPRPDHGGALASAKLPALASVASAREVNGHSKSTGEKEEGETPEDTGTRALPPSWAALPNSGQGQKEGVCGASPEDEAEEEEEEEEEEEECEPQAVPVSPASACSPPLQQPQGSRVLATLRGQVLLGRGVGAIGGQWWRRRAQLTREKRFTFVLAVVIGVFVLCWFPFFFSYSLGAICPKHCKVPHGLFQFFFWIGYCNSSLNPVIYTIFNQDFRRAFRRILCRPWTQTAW

[5] = biological target: T3, human α2C‐adrenoceptor (Homo sapiens, UniProt P18825); assay: ^3H‐rauwolscine whole cell competition binding, CHO‐α2C cells; conditions: for Selectivity ratio α2A vs α2C (higher affinity for α2C) / Selectivity ratio α2B vs α2C (higher affinity for α2C): ratio of KD values
T3 sequence (P18825 1-462): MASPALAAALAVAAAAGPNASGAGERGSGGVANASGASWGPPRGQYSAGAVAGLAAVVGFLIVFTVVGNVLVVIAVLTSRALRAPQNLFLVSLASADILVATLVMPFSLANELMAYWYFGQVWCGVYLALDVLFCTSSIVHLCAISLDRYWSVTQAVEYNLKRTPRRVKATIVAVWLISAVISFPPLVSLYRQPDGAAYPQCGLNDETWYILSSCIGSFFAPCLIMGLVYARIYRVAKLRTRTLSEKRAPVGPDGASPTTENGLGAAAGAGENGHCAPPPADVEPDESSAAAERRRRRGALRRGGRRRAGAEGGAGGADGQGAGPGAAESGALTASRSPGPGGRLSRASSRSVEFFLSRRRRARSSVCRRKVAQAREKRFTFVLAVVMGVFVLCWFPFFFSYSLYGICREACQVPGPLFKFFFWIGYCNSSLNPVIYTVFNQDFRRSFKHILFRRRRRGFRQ

[6] = biological target: T1, human α2A‐adrenoceptor; assay: cell-based
[7] = ^3H‐CGP12177 whole cell binding, log values, mean ± s.e.mean, ^app = apparent KD, 'no binding to' = log top concentration
[8] = given as log KD (negative values), 3H-CGP12177 whole cell binding, CHO cells, mean ± s.e.mean
[9] = given as log KD (negative values), 3H-rauwolscine whole cell binding, CHO cells, mean ± s.e.mean

SMILES: CCC1(c2cnc[nH]2)Cc2ccccc2C1 [atipamezole]
- Kd [1]: 0.00316 µM
- Log KD β1 [2, 7]: No binding to −4.5
- Log KD β1 [2, 8]: No binding to -4.5
- Log KD β2 [3, 7]: No binding to −4.5
- Log KD β2 [3, 8]: No binding to -4.5

SMILES: CN1[C@H]2C[C@H](OC(=O)[C@H](CO)c3ccccc3)C[C@@H]1[C@@H](O)C2 [anisodamine]
- IC50 (log) α2B, IC50>top concentration used [4]: IC50>−3
- IC50 (log) α2A, IC50>top concentration used [1]: IC50>−3
- Log KD β1 [2]: no binding to −3; also recorded: no binding to -3
- Log KD β2 [3]: no binding to −3; also recorded: no binding to -3
- Log KD α2C [5]: −3.56 ± 0.07^app

SMILES: COc1ccccc1N1CCN(CCCNc2c(C)c(=O)n(C)c(=O)n2C)CC1 [5‐methyl‐urapidil]
- Log KD α2B [4]: −5.17 ± 0.05
- Log KD α2A [1]: −5.18 ± 0.05
- Log KD β2 [3]: −5.00 ± 0.07
- Log KD α2C [5]: −5.81 ± 0.07

SMILES: CNCCCN1c2ccccc2CCc2ccc(Cl)cc21 [norclomipramine]
- Log KD α2B [4]: −5.74 ± 0.04^app
- Selectivity ratio α2A vs α2B (higher affinity for α2B) ([4]; ratio of KD values): 2.8
- Log KD α2A [1]: −5.29 ± 0.09^app
- IC50 (log) β1, IC50>top concentration used ([2]; ^3H‐CGP12177, log value): IC50>−4.5
- IC50 (log) β2, IC50>top concentration used ([3]; ^3H‐CGP12177, log value): IC50>−4.5
- Log KD α2C [5]: −5.80 ± 0.07^app
- Selectivity ratio α2A vs α2C (higher affinity for α2C) [5]: 3.2
- Selectivity ratio α2B vs α2C (higher affinity for α2C) [5]: 1.1

SMILES: COc1ccccc1N1CCN(CCCNc2c(C)c(=O)n(C)c(=O)n2C)CC1 [5-methyl-urapidil]
- Log KD α2B [4, 9]: -5.17 ± 0.05
- Log KD α2A [1, 9]: -5.18 ± 0.05
- Log KD β2 [3]: -5.00 ± 0.07
- Log KD α2C [5, 9]: -5.81 ± 0.07

SMILES: CC(C)(C)NCC(O)COc1cccc2[nH]c(=O)[nH]c12 (stereo not drawn) [CGP12177]
- Log KD α2B [4, 9]: No bind to -3
- Binding at α2B (result in words) ([4]; up to log concentration -3): No binding -3
- IC50 [1]: > 1000 µM
- IC50 [5]: > 1000 µM

SMILES: CN(C)CCCN1c2ccccc2CCc2ccc(Cl)cc21 [clomipramine]
- Kd [6]: 1.95 µM

SMILES: CCC1(C2=NCCN2)Cc2ccccc2O1 (stereo not drawn) [eforaxan]
- Log KD β1 [2, 7]: no binding to −3
- Log KD β1 [2, 8]: no binding to -3
- Log KD β2 [3, 7]: no binding to −3
- Log KD β2 [3, 8]: no binding to -3

SMILES: CC(C)(Cc1c[nH]c2ccc(Cl)cc12)NCCOc1ccccc1OCC1CC1 [RS17053]
- Log KD α2B [4]: −5.65 ± 0.07
- Log KD α2A [1]: −6.20 ± 0.11
- Selectivity ratio α2A vs α2B (higher affinity for α2A) ([1]; ratio of KD values): 3.5
- Log KD β1 [2]: −5.44 ± 0.04
- Log KD β2 [3]: −6.42 ± 0.06
- Log KD α2C [5]: −6.35 ± 0.08
- Selectivity ratio α2A vs α2C (higher affinity for α2C) [5]: 1.4
- Selectivity ratio α2B vs α2C (higher affinity for α2C) [5]: 5.0

SMILES: COc1ccccc1N1CCN(CC2CN3C(=O)N(C)c4ccccc4C3=N2)CC1 (stereo not drawn) [2-MPMDQ]
- Log KD α2B [4, 9]: -5.94 ± 0.09
- Selectivity ratio α2A vs α2B (α2A-selective) ([1]; fold, higher affinity at α2A than α2B, 1 = no selectivity): 7.1
- Log KD α2A [1, 9]: -6.79 ± 0.04
- IC50 (log) β1 ([2]; printed as log IC50 bound (negative) in the Log KD β1 column, 3H-CGP12177): IC50>-5
- IC50 (log) β2 ([3]; printed as log IC50 bound (negative) in the Log KD β2 column, 3H-CGP12177): IC50>-5
- Selectivity ratio α2A vs α2C (α2C-selective) ([5]; fold, higher affinity at α2C than α2A, 1 = no selectivity): 5.1
- Selectivity ratio α2B vs α2C (α2C-selective) ([5]; fold, higher affinity at α2C than α2B, 1 = no selectivity): 36.3
- Log KD α2C [5, 9]: -7.50 ± 0.02

SMILES: CC(C)(C)NC[C@H](O)COc1cccc2[nH]c(C#N)cc12 [S-cyanopindolol]
- Log KD α2B, apparent affinity (app) ([4]; log KD (negative), apparent KD: maximum concentration inhibited most but not all specific binding, IC50 from extrapolated curve): -4.82 ± 0.10^app
- Log KD α2A [1, 9]: -5.56 ± 0.10
- Log KD α2C [5, 9]: -6.15 ± 0.07

SMILES: CC(C)(C)NCC(O)COc1cccc2[nH]c(C#N)cc12 (stereo not drawn) [cyanopindolol]
- Kd [4]: 15.1 µM
- Kd [1]: 2.75 µM
- Kd [5]: 0.708 µM
